Assay results from publication PMC8746632, “Design and Synthesis of New Thiophene/Thieno[2,3-d]pyrimidines along with Their Cytotoxic Biological Evaluation as Tyrosine Kinase Inhibitors in Addition to Their Apoptotic and Autophagic Induction” (Molecules, 2021).

Molecular target: T1, FLT3 kinase (Fms-like tyrosine kinase 3) (Homo sapiens, UniProt P36888)
T1 sequence (P36888 27-993): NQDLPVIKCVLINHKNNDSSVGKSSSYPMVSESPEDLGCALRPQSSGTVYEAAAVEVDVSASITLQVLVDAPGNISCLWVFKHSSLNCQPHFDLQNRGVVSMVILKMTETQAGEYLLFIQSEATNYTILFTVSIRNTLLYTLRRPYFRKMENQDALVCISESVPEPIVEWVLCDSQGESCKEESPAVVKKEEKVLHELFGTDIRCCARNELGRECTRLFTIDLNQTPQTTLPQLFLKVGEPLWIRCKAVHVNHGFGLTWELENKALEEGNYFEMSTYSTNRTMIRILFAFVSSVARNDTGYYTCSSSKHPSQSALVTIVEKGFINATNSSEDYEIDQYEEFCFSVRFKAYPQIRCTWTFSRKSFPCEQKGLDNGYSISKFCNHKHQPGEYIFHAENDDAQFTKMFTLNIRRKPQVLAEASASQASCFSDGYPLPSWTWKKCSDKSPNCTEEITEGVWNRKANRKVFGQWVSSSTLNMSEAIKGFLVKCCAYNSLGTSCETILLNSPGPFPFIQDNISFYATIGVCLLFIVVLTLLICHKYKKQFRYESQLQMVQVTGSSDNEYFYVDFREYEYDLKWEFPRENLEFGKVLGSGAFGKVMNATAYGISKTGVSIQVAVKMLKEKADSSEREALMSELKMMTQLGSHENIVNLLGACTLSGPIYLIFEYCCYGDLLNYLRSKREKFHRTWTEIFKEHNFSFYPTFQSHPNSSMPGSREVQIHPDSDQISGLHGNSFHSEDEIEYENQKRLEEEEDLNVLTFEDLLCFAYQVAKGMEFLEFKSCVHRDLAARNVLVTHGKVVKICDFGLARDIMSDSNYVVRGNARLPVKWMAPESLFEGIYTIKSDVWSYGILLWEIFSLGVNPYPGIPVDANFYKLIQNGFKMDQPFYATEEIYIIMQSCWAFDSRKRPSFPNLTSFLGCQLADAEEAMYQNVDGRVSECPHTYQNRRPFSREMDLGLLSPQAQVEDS
Assay: FLT3 Kinase Assay Kit, ADP production, luminescence, dose response
Assay type: biochemical

| IC50 [µM] | SMILES |
| --- | --- |
| 32.4 ± 5.5 | O=C(CCl)NNc1ncnc2sc3c(c12)CCCC3 [compound 5, 2-Chloro-N′-(5,6,7,8,tetrahydrobenzo[4,5]thieno[2,3-d]pyrimidin-4-yl)acetohydrazide] |
| 40.5 ± 6.3 | CC1=CC(=O)N(Nc2ncnc3sc4c(c23)CCCC4)C1=O [compound 8, 3-Methyl-1-(5,6,7,8-tetrahydrobenzo[4,5]thieno[2,3-d]pyrimidin-4-ylamino)-1H-pyrrole-2,5-dione] |
| 39.6 ± 4.6 | CC(C)(C)c1cc(Nc2ncnc3sc4c(c23)CCCC4)on1 [9b, N-(3-tert-butylisoxazol-5-yl)-5,6,7,8-tetrahydrobenzo[4,5]thieno[2,3-d]pyrimidin-4-amine] |
| 40 ± 5.5 | CCOC(=O)c1c(NC(=O)CCl)sc2c1CCCC2 [compound 10, 10] |
